One may read the IC50 as the midpoint of a concentration-inhibition curve. Higher therefore signals lower potency.

IC50 data for one molecule are collected here from paper PMC9803904, “Selective somatostatin receptor 5 inhibition improves hepatic insulin sensitivity” (Pharmacology Research & Perspectives, 2022).

Experiment [1] deals with T1, mouse SSTR5 (somatostatin receptor 5) (Mus musculus, UniProt O08858).
T1 sequence (O08858 1-362): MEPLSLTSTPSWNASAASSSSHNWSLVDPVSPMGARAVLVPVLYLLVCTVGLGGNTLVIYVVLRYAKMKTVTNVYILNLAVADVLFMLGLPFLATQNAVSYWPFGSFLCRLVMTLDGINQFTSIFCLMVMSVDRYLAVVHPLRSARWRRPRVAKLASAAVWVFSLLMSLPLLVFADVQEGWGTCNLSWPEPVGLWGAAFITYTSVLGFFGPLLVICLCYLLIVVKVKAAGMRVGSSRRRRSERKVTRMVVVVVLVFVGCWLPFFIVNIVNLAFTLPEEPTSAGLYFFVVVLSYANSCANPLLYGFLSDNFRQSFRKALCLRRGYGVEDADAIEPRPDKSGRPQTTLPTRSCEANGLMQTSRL
Description: HTRF cAMP antagonist assay in CHO cells stably expressing mouse SSTR5, stimulated with SST28 and forskolin. It counts as cell-based. (Time-resolved FRET reads energy transfer from a long-lived donor to a nearby acceptor.)

The target in experiment [2] is human SSTR5 (somatostatin receptor 5) (Homo sapiens, UniProt P35346). The experiment is described as follows: HTRF cAMP antagonist assay in CHO cells stably expressing human SSTR5, stimulated with SST28 and forskolin. The experiment is classed as cell-based.
human SSTR5 (somatostatin receptor 5), sequence (P35346 whole entry): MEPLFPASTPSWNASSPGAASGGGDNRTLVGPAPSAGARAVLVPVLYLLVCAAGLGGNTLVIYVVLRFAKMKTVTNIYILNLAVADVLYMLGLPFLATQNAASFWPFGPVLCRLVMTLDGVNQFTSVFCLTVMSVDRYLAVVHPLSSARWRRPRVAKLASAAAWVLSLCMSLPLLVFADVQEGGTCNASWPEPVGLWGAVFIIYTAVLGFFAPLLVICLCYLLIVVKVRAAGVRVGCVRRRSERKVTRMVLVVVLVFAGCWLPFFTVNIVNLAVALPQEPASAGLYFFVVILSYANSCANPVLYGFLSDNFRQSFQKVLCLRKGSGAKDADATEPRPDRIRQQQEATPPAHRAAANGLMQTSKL

Consider `Cc1c(C(=O)O)ccn(C2CCN(Cc3cc(C4CC4)c(-c4ccc(F)cc4)c(F)c3OC(C)C)CC2)c1=O` [compound-1], for which the IC50 in experiment [1] is 31 nM; in experiment [2], 9.8 nM.
